Target: c-kit (Homo sapiens (Human), UniProt P10721)
Test: Mo7e cell proliferation assay (SCF dependent proliferation)
Assay type: cell-based
Conditions: Mo7e cells stimulated with human recombinant SCF, 48 hours, 1% FBS
Experimental: Compounds of Formula (I) and Formula (II) provided herein were assayed to measure their capacity to inhibit c-kit and PDGFR kinases using the appropriate assay described below: c-Kit inhibition was evaluated using the Mo7e cell proliferation assay, and PDGFR inhibition was evaluated using the Rat A10 cell proliferation assay and the Human TG/HA-VSMC cell proliferation assay.
Mo7e Cell Proliferation Assay
The compounds of Table 1 and Table 2 were tested for inhibition of SCF dependent proliferation using human Mo7e cells which endogenously express c-kit in a 384 well format. […] After 48 hours of incubation at 37° C., cell viability was measured by adding 25 uL of CellTiter Glo (Promega) to the cells and the luminescence was measured by a CLIPR CCD camera (Molecular Devices).
The IC50 value is given as that concentration of the test compound in question that provoke a response halfway between the baseline and maximum responses.

Chain of c-kit (P10721 26-976): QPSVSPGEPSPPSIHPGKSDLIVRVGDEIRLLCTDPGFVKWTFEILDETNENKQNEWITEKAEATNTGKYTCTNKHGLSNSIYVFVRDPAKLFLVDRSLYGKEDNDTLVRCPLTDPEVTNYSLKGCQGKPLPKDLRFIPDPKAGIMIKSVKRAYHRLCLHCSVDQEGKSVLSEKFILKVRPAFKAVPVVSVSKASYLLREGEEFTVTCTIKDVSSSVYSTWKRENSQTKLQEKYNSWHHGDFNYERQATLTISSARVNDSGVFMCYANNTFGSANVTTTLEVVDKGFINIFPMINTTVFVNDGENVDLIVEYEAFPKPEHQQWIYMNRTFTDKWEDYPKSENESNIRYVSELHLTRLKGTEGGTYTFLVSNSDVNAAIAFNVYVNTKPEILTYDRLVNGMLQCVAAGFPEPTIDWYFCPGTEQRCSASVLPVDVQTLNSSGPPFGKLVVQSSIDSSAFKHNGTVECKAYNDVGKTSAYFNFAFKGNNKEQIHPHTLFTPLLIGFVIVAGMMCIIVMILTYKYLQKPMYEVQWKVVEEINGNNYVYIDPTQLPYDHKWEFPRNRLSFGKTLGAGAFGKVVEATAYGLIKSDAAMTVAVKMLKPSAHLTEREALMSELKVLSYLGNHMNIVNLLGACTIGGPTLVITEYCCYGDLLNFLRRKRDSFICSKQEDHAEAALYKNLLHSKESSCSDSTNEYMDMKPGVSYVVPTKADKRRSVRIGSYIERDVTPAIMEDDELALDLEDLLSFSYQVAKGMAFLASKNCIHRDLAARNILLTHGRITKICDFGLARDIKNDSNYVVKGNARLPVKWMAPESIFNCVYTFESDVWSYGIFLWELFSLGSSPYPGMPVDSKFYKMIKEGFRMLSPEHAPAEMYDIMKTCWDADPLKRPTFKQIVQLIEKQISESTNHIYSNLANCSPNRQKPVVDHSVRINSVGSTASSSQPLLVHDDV

Row | IC50 [nM] | Compound
1 | 31 | Cc1ccc(-c2noc(C3CC(F)(F)C3)n2)cc1NC(=O)c1cnc2ccc(CCC(C)(C)O)cn12 [F54, N-(5-(5-(3,3-difluorocyclobutyl)-1,2,4-oxadiazol-3-yl)-2-methylphenyl)-6-(3-hydroxy-3-methylbutyl)imidazo[1,2-a]pyridine-3-carboxamide]
2 | 92 | Cc1ccc(-c2noc(CCC3(O)CC3)n2)cc1NC(=O)c1cnc2ccccn12 [F55a, N-(5-(5-(2-(1-hydroxycyclopropyl)ethyl)-1,2,4-oxadiazol-3-yl)-2-methylphenyl)imidazo[1,2-a]pyridine-3-carboxamide]
3 | 23 | Cc1ccc(-c2noc(C3CCC3)n2)cc1NC(=O)c1cnc2ccccn12 [F57]
4 | 20 | Cc1ccc(-c2noc(C3CC(C)(C)C3)n2)cc1NC(=O)c1cnc2ccccn12 [F58]
5 | 7 | Cc1ccc(-c2noc(C3CC(F)(F)C3)n2)cc1NC(=O)c1cnc2cc(N3CCOCC3)ccn12 [F59, N-(5-(5-(3,3-difluorocyclobutyl)-1,2,4-oxadiazol-3-yl)-2-methylphenyl)-7-morpholinoimidazo[1,2-a]pyridine-3-carboxamide]
6 | 154 | Cc1nnc(-c2ccc3ncc(C(=O)Nc4cc(-c5noc(C6CC(F)(F)C6)n5)ccc4F)n3c2)[nH]1 [F61, N-(5-(5-(3,3-difluorocyclobutyl)-1,2,4-oxadiazol-3-yl)-2-fluorophenyl)-6-(5-methyl-4H-1,2,4-triazol-3-yl)imidazo[1,2-a]pyridine-3-carboxamide]
7 | 82 | Cc1ccc(-c2noc(C3CC(F)(F)C3)n2)cc1NC(=O)c1cnc2ccc(CCN3CCN(C)CC3)cn12 [F63, N-(5-(5-(3,3-difluorocyclobutyl)-1,2,4-oxadiazol-3-yl)-2-methylphenyl)-6-(2-(4-methylpiperazin-1-yl)ethyl)imidazo[1,2-a]pyridine-3-carboxamide]
8 | 52 | Cc1ccc(-c2noc(C3CC3(F)F)n2)cc1NC(=O)c1cnc2ccccn12 (centres unmarked) [F64, N-(5-(5-(2,2-difluorocyclopropyl)-1,2,4-oxadiazol-3-yl)-2-methylphenyl)imidazo[1,2-a]pyridine-3-carboxamide]
9 | 13 | Cc1ccc(-c2noc(C3CC(F)(F)C3)n2)cc1NC(=O)c1cnc2cc(-c3c[nH]nn3)ccn12 [F65, N-(5-(5-(3,3-difluorocyclobutyl)-1,2,4-oxadiazol-3-yl)-2-methylphenyl)-7-(1H-1,2,3-triazol-4-yl)imidazo[1,2-a]pyridine-3-carboxamide]
10 | 16 | Cc1ccc(-c2noc(C3CC(F)(F)C3)n2)cc1NC(=O)c1cnc2cc(-c3cn(CCO)nn3)ccn12 [F66, N-(5-(5-(3,3-difluorocyclobutyl)-1,2,4-oxadiazol-3-yl)-2-methylphenyl)-7-(1-(2-hydroxyethyl)-1H-1,2,3-triazol-4-yl)imidazo[1,2-a]pyridine-3-carboxamide]
11 | 49 | Cc1cc(C)c(-c2noc(C3CC(F)(F)C3)n2)cc1NC(=O)c1cnc2ccccn12 [F67]
12 | 39 | Cc1ccc(-c2noc(C3CC(F)(F)C3)n2)cc1NC(=O)c1cnc2cc(N3CCOC3=O)ccn12 [F68]
13 | 33 | Cc1ccc(-c2noc(C3CCCC3)n2)cc1NC(=O)c1cnc2ccccn12 [F74]
14 | 17 | Cc1ccc(-c2noc(C3CC4(CC(=O)C4)C3)n2)cc1NC(=O)c1cnc2ccccn12 [F75, N-(2-methyl-5-(5-(6-oxospiro[3.3]heptan-2-yl)-1,2,4-oxadiazol-3-yl)phenyl)imidazo[1,2-a]pyridine-3-carboxamide]
15 | 37 | Cc1ccc(-c2noc(C3CC(F)(F)C3)n2)cc1NC(=O)c1cnc2cc(N3CCCC3=O)ccn12 [F76]
16 | 32 | Cc1ccc(-c2noc(C3CC(F)(F)C3)n2)cc1NC(=O)c1cnc2ccc(COCC(F)F)cn12 [F77]
17 | 55 | Cc1nnc(-c2ccc3ncc(C(=O)Nc4cc(-c5noc(C6CC(F)(F)C6)n5)ccc4C)n3c2)[nH]1 [F79, N-(5-(5-(3,3-difluorocyclobutyl)-1,2,4-oxadiazol-3-yl)-2-methylphenyl)-6-(5-methyl-1H-1,2,4-triazol-3-yl)imidazo[1,2-a]pyridine-3-carboxamide]
18 | 19 | [2H]C([2H])([2H])c1ccn2c(C(=O)Nc3cc(-c4noc(C5CC(F)(F)C5)n4)ccc3C)cnc2c1 [F80]
19 | 26 | Cc1ccc(-c2noc(C3CC(F)(F)C3)n2)cc1NC(=O)c1cnc2ccc(N3CCOCC3)cn12 [F81]

Row | IC50 [nM] | Compound
20 | 78 | Cc1ccc(-c2noc(C3CC(F)(F)C3)n2)cc1NC(=O)c1cnc2ccc(-n3ccnc3)cn12 [F82]
21 | 29 | Cc1ccc(-c2noc(C3CC(F)(F)C3)n2)cc1NC(=O)c1cnc2ccc(COCCF)cn12 [F83]
22 | 22 | COCc1n[nH]c(-c2ccc3ncc(C(=O)Nc4cc(-c5noc(C6CC(F)(F)C6)n5)ccc4C)n3c2)n1 [F84]
23 | 69 | Cc1ccc(-c2noc(C3CC3(F)F)n2)cc1NC(=O)c1cnc2ccc(COCC(F)(F)F)cn12 (centres unmarked) [F85]
24 | 49 | Cc1ccc(-c2noc(C3CCC3)n2)cc1NC(=O)c1cnc2ccc(COCC(F)(F)F)cn12 [F86]
25 | 25 | Cc1ccn2c(C(=O)Nc3cc(-c4noc([C@H]5C[C@](O)(C(F)(F)F)C5)n4)ccc3C)cnc2c1 [F89]
26 | 40 | Cc1ccc(-c2noc([C@H]3C[C@](O)(C(F)(F)F)C3)n2)cc1NC(=O)c1cnc2ccc(F)cn12 [F90]
27 | 20 | Cc1ccc(-c2noc([C@H]3C[C@@H]3F)n2)cc1NC(=O)c1cnc2ccccn12 [F91]
28 | 35 | [2H]c1c([2H])c([2H])n2c(C(=O)Nc3cc(-c4noc(C5CC(F)(F)C5)n4)ccc3C)cnc2c1[2H] [F92]
29 | 24 | Cc1ccc(C(=O)NC2CC(F)(F)C2)cc1NC(=O)c1cnc2ccccn12 [F93]
30 | 56 | Cc1ccc(-c2noc(C3CC(O)(C(F)(F)F)C3)n2)cc1NC(=O)c1cnc2cc(F)ccn12 (centres unmarked) [F94]
31 | 77 | Cc1cn(-c2ccc3ncc(C(=O)Nc4cc(-c5noc(C6CC(F)(F)C6)n5)ccc4C)n3c2)cn1 [F95]
32 | 86 | COCC1(c2nc(-c3ccc(C)c(NC(=O)c4cnc5ccc(F)cn45)c3)no2)CCC1 [F98]
33 | 67 | Cc1ccc(-c2noc([C@@H]3C[C@@H]3F)n2)cc1NC(=O)c1cnc2ccccn12 [F101]
34 | 9 | Cc1ccn2c(C(=O)Nc3cc(-c4noc(COC5CC(F)(F)C5(F)F)n4)ccc3C)cnc2c1 (centres unmarked) [F102]
35 | 16 | Cc1ccc2ncc(C(=O)Nc3cc(-c4noc(COC5CC(F)(F)C5(F)F)n4)ccc3C)n2c1 (centres unmarked) [F103]
36 | 57 | Cc1ccc(-c2noc(C3CC3)n2)cc1NC(=O)c1cnc2ccccn12 [F104]
37 | 40 | Cc1ccc(-c2noc(CC3CC3)n2)cc1NC(=O)c1cnc2ccccn12 [F105]
38 | 52 | Cc1ccn2c(C(=O)Nc3cc(-c4noc([C@H]5C[C@@H]5F)n4)ccc3C)cnc2c1 [F106]

Row | IC50 [nM] | Compound
39 | 85 | Cc1ccn2c(C(=O)Nc3cc(-c4noc([C@@H]5C[C@H]5F)n4)ccc3C)cnc2c1 [F107]
40 | 58 | Cc1ccc(-c2noc([C@H]3C[C@@H]3F)n2)cc1NC(=O)c1cnc2ccccn12 [F110, N-(5-(5-((1R,2S)-2-fluorocyclopropyl)-1,2,4-oxadiazol-3-yl)-2-methylphenyl)imidazo[1,2-a]pyridine-3-carboxamide]
41 | 46 | Cc1ccn2c(C(=O)Nc3cc(-c4noc(C5CC(F)C5)n4)ccc3C)cnc2c1 (centres unmarked) [F111]
42 | 56 | Cc1ccc2ncc(C(=O)Nc3cc(-c4noc(C5CC(F)C5)n4)ccc3C)n2c1 (centres unmarked) [F112]
43 | 56 | Cc1ccc(-c2noc([C@@H]3C[C@H]3F)n2)cc1NC(=O)c1cnc2ccccn12 [F113, N-(5-(5-((1S,2R)-2-fluorocyclopropyl)-1,2,4-oxadiazol-3-yl)-2-methylphenyl)imidazo[1,2-a]pyridine-3-carboxamide]
44 | 203 | CO/N=C1/CCC(c2nc(-c3ccc(C)c(NC(=O)c4cnc5ccccn45)c3)no2)C1 (centres unmarked) [F117]
45 | 162 | Cc1ccc(-c2noc(C3(C(F)(F)F)CC3)n2)cc1NC(=O)c1cnc2ccccn12 [F119]
46 | 140 | Cc1ccc(-c2noc(C3CC(=O)C3)n2)cc1NC(=O)c1cnc2ccccn12 [F121]
47 | 345 | Cc1ccc(-c2noc([C@H]3C[C@@H](N4CCCCC4)C3)n2)cc1NC(=O)c1cnc2ccccn12 [F123]
48 | 257 | Cc1ccc(-c2noc([C@H]3C[C@@H](N4CCOCC4)C3)n2)cc1NC(=O)c1cnc2ccccn12 [F124]
49 | 393 | Cc1ccc(-c2noc([C@H]3C[C@@H](N4CCN(C)CC4)C3)n2)cc1NC(=O)c1cnc2ccccn12 [F125]
50 | 213 | Cc1ccc(-c2noc(C3CC(=NOCCN4CCOCC4)C3)n2)cc1NC(=O)c1cnc2ccccn12 (centres unmarked) [F126]
51 | 353 | Cc1ccc(-c2noc([C@H]3C[C@H](NC(=O)OC(C)(C)C)C3)n2)cc1NC(=O)c1cnc2ccccn12 [F127]
52 | 143 | Cc1ccc(-c2noc([C@H]3C[C@H](NS(C)(=O)=O)C3)n2)cc1NC(=O)c1cnc2ccccn12 [F129]
53 | 311 | Cc1ccc(-c2noc(C3(N)CC3)n2)cc1NC(=O)c1cnc2ccccn12 [F131]
54 | 554 | COCC(=O)NC1(c2nc(-c3ccc(C)c(NC(=O)c4cnc5ccccn45)c3)no2)CC1 [F132]
55 | 451 | COCCN[C@H]1C[C@@H](c2nc(-c3ccc(C)c(NC(=O)c4cnc5ccccn45)c3)no2)C1 [F133]
56 | 144 | O=C(Nc1cc(-c2noc(C3CC(F)(F)C3)n2)ccc1F)c1cnc2ccccn12 [F134]
57 | 999 | COC1(C(F)(F)F)CC(c2nc(-c3ccc(C)c(N(C)C(=O)c4cnc5ccccn45)c3)no2)C1 (centres unmarked) [F135]

Same assay, conditions: Mo7e cells stimulated with human recombinant SCF, 48 hours, 20% FBS (values marked *)

Row | IC50 [nM] | Compound
58 | 322 | Cc1ccc(-c2nc(C3CC3)no2)cc1NC(=O)c1cnc2ccccn12 [F114]
59 | 182 | Cc1ccc(-c2noc(C3CC(C)(O)C3)n2)cc1NC(=O)c1cnc2ccccn12 (centres unmarked) [F116]

From patent US9199981B2 (NOVARTIS AG, priority 2011, dated 2015)
